Results published in PMC10650955, “α-Aminophosphonate inhibitors of metallo-β-lactamases NDM-1 and VIM-2” (RSC Medicinal Chemistry, 2023).
Structures can show the parent of a compound that is named as a salt.

What was measured:
[1] = target: T1, VIM-2 (Escherichia coli, UniProt Q5U7L7); test: Dose rate inhibition studies for IC50 determination, VIM-2 enzymatic assay; type: biochemical; details: inhibitor 0-800 μM, 3 parallel measurements, N.I. = no enzyme inhibitory activity observed; for IC50: Enzyme IC50 VIM-2, 0.1 nM VIM-2, 100 μM ZnCl2, nitrocefin substrate
T1 construct: made in house
Protocol: (§1) The […] synthesized compounds 5a–l were tested for their inhibitory activities against NDM-1, VIM-2 (Table 1), and GIM-1 in an in vitro enzymatic assay (ESI ^†).[41] The inhibitory activity was measured using enzyme concentrations of 0.1 nM VIM-2, 10 nM NDM-1 or 1 nM GIM-1, with an excess Zn(II) (100 μM, see Experimental methods), with inhibitor compounds with concentrations from 0 to 800 μM. Each data point was measured in triplicates. […] This is in line with previous reports.[42,43]
(§2) A 100 μl solution with buffer (50 mM HEPES (pH 7.2), 100 μM ZnCl2, 2.5% DMSO), purified enzyme (0.1 nM VIM-2, 10 nM NDM-1 or 1 nM GIM-1) and 800–0 μM inhibitor was incubated in a 96 well plate at 25 °C for 5 min. In addition, the enzyme buffer contained 400 μg ml^−1 bovine serum albumin (BSA) to prevent protein unfolding and loss of activity due to low concentrations.[67,68] 100 μM of the reporter substrate nitrocefin (VIM-2, GIM-1) or imipenem (NDM-1) was added to the enzyme–inhibitor solution and the increase in absorbance at 482 nm (nitrocefin) or 300 nm (imipenem) was recorded on a Spectramax M4 spectrophotometer (Molecular Devices). Each data point was performed in triplicates and the initial velocity for each inhibitor concentration was analyzed by a log [inhibitor] vs. response curve fitting to calculate IC50 in GraphPad Prism 9.2 software.

[2] = target: T2, NDM-1 (Klebsiella pneumoniae, UniProt C7C422); test: Dose rate inhibition studies for IC50 determination, NDM-1 enzymatic assay; type: biochemical; details: Enzyme IC50 NDM-1, 10 nM NDM-1, 100 μM ZnCl2, imipenem substrate, inhibitor 0-800 μM, 3 parallel measurements; N.I. = no enzyme inhibitory activity observed
T2 construct: made in house
Protocol: as §1, §2

[3] = target: T3, 15N-labelled VIM-2 (Escherichia coli, UniProt Q5U7L7); test: 1H,15N HSQC NMR chemical shift perturbation titration, VIM-2; type: binding; details: VIM-2 Kd, 0-16 equiv. ligand, pH 7.0, 310 K
T3 construct: made in house
Protocol: (§3) Solution NMR spectroscopy is a powerful tool to assess protein–ligand interactions under close to physiological conditions.[47] We, therefore, performed NMR chemical shift perturbation (CSP, for details, see section S8, ESI ^†) experiments to identify the amino acid residues of NDM-1 and VIM-2 that are involved in inhibitor binding, making use of the previously published protein assignments.[48,49] Titrations were conducted using ^15N-labelled proteins with 0, 0.5, 1, 2, 4, 8, and 16 equiv. of 5 inhibitors for NDM-1 and of 7 inhibitors for VIM-2.
(§4) For the titrations, ^15N-labelled NDM-1 and ^15N-labelled VIM-2 (250 μM), and titrated ligands (0.5 equiv. in 1 μL) were prepared in the same buffer as the protein (20 mM KPO4, 0.1 mM ZnCl2, pH 7.0 with 10% D2O and 2.5% DMSO-d6). ^1H,^15N HSQC spectra were acquired with 128 × 1024 complex points (F1 × F2) and spectral width of 9090 × 2740 Hz on ^15N-labeled NDM-1/VIM-2 and with every titration step up to 1 : 16 ratio between protein : ligand (0, 0.5, 1, 2, 4, 8, and 16 equiv. of ligand). All experiments were recorded on a Bruker 600 MHz spectrometer at 310 K equipped with a 5 mm TCI cryogenic probe. The NMR data were processed on the MestReNova software with the Mnova Binding plugin. The weighted average chemical shift perturbations (CSP) for the backbone amides were calculated from the observed chemical shift differences in the proton and nitrogen dimensions using the equation (chemical shift scaling factors: FH = 1, FN = 0.156) CSP = Δδ1H,15N = [drawing 13] .
(§5) 7. Chemical shift perturbation histograms
(§6) Chemical shift perturbation was calculated according equation (1) 2
(§7) CSP = Δδ(1H,15N) = √(Δδ1H2 + (1⁄R × Δδ15N2) Rscale = 6.5 (1)
(§8) Where Δδ1H is the chemical shift change for proton dimension, Δδ15N is the chemical shift change for nitrogen dimension, Rscale is a
(§9) The chemical shift perturbations (CSP) were classified as significant (SSP) when the observed Δδ(1H,15N) was greater than the population
(§10) mean plus the standard deviation (µ+1σ) – solid line; (µ+2σ) – dashed line, and (µ+3σ) – dashed line.
(§11) Further on, Kd was calculated according: 3
(§12) ([P]+[L]+Kd)− √([P]+[L]+Kd)2−4[P][L]
(§13) ΔδmaxΔδobs = Δδmax 2[P] (2)
(§14) Where Kd is the dissociation constant, [P] and [L] are protein and ligand concentrations, respectively. Δδmax were estimated in
(§15) MestReNova by extrapolation of the obser ved chemical shift differences Δδobs.

[4] = target: T4, 15N-labelled NDM-1 (Klebsiella pneumoniae, UniProt C7C422); test: 1H,15N HSQC NMR chemical shift perturbation titration, NDM-1; type: binding
T4 construct: made in house
Protocol: as §3, §4, §5, §6, §7, §8, §9, §10, §11, §12, §13, §14, §15

[5] = Estimated binding constant (Kd), residue 119T, Table S5, per-residue fit, NDM-1 119T
[6] = Estimated binding constant (Kd), residue 124D, Table S5, per-residue fit, NDM-1 124D
[7] = Estimated binding constant (Kd), residue 127G, Table S5, per-residue fit, NDM-1 127G
[8] = Estimated binding constant (Kd), residue 159H, Table S5, per-residue fit, NDM-1 159H
[9] = Estimated binding constant (Kd), residue 160S, Table S5, per-residue fit, NDM-1 160S
[10] = Estimated binding constant (Kd), residue 188G, Table S5, per-residue fit, NDM-1 188G
[11] = Estimated binding constant (Kd), residue 191S, Table S5, per-residue fit, NDM-1 191S
[12] = Estimated binding constant (Kd), residue 194I, Table S5, per-residue fit, NDM-1 194I
[13] = Estimated binding constant (Kd), residue 197G, Table S5, per-residue fit, NDM-1 197G
[14] = Estimated binding constant (Kd), residue 205F, Table S5, per-residue fit, NDM-1 205F
[15] = Estimated binding constant (Kd), residue 211K, Table S5, per-residue fit, NDM-1 211K
[16] = Estimated binding constant (Kd), residue 214K, Table S5, per-residue fit, NDM-1 214K
[17] = Estimated binding constant (Kd), residue 217S, Table S5, per-residue fit, NDM-1 217S
[18] = Estimated binding constant (Kd), residue 228H, Table S5, per-residue fit, NDM-1 228H
[19] = Estimated binding constant (Kd), residue 229Y, Table S5, per-residue fit, NDM-1 229Y
[20] = Estimated binding constant (Kd), residue 230A, Table S5, per-residue fit, NDM-1 230A
[21] = Estimated binding constant (Kd), residue 248M, Table S5, per-residue fit, NDM-1 248M
[22] = Estimated binding constant (Kd), residue 251S, Table S5, per-residue fit, NDM-1 251S
[23] = Estimated binding constant (Kd), residue 252A, Table S5, per-residue fit, NDM-1 252A
[24] = Estimated binding constant (Kd), residue 254D, Table S5, per-residue fit, NDM-1 254D
[25] = Estimated binding constant (Kd), residue 255S, Table S5, per-residue fit, NDM-1 255S
[26] = NDM-1 Kd, NMR chemical shift perturbation, 0-16 equiv. ligand, pH 7.0, 310 K
[27] = Estimated binding constant (Kd), residue 070F, Table S5, per-residue fit, NDM-1 070F
[28] = Estimated binding constant (Kd), residue 108E, Table S5, per-residue fit, NDM-1 108E
[29] = Estimated binding constant (Kd), residue 152E, Table S5, per-residue fit, NDM-1 152E
[30] = Estimated binding constant (Kd), residue 232S, Table S5, per-residue fit, NDM-1 232S

T2 sequence (C7C422 29-270 limits assumed): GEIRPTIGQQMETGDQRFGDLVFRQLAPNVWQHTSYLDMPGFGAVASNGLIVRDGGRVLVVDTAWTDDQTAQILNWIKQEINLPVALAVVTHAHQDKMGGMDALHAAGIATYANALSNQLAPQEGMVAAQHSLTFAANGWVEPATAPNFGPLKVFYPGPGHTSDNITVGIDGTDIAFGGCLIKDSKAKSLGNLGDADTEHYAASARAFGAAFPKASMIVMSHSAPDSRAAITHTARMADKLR
T4 sequence (C7C422 29-270 limits assumed): as above

SMILES | IC50 [2] [mM] | Kd [3] [mM] | Kd [4, 5] [mM] | Kd [4, 6] [mM] | Kd [4, 7] [mM] | Kd [4, 8] [mM] | Kd [4, 9] [mM] | Kd [4, 12] [mM] | Kd [4, 13] [mM] | Kd [4, 14] [mM] | Kd [4, 15] [mM] | Kd [4, 16] [mM] | Kd [4, 17] [mM] | Kd [4, 18] [mM] | Kd [4, 19] [mM] | Kd [4, 20] [mM] | Kd [4, 21] [mM] | Kd [4, 22] [mM] | Kd [4, 24] [mM] | Kd [4, 25] [mM] | other results
O=C(Cc1cccs1)NC(C1CCCCN1)P(=O)(O)O (centres unmarked) [Compound 5i-1, (Piperidin-2-yl(2-(thiophen-2-yl)acetamido)methyl)phos-phonic acid hydrochloride] | 0.296 ± 0.087 | 1.5 ± 0.2 | 0.93 | 3.53 | 8.94 | 2.47 | 0.25 | 4.99 | 1.27 | 2.3 | 0.14 | 0.57 | 3.06 | 3.08 | 0.34 | 0.18 | 0.78 | 1.82 | 7.53 | 9.91 | Enzyme IC50 VIM-2 ([1]; 0.1 nM VIM-2, 100 μM ZnCl2, nitrocefin substrate): N.I.; Kd [4, 10]: 0.49 mM; Kd [4, 11]: 0.12 mM; Kd ([4]; Estimated binding constant (Kd), residue 213S, Table S5, per-residue fit, NDM-1 213S): 0.39 mM; Kd [4, 23]: 0.48 mM; Kd [4, 26]: 0.5 ± 0.1 mM
O=C(NC(C1CCCCN1)P(=O)(O)O)c1cccs1 (centres unmarked) [Compound 5b-1, (Piperidin-2-yl(thiophene-2-carboxamido)methyl)phos-phonic acid hydrochloride] | 0.23 ± 0.028 | 0.4 ± 0.04 | 18.1 | 3.17 | 8.34 | 21.5 | 8.97 | 2.93 | 10.4 | 11 | 3.49 | 1.36 | 10.5 | 11 | 2.24 | 4.33 | 12.9 | 6.07 | 9.74 | 7.37 | IC50 [1]: 0.118 ± 0.06 mM; Kd [4, 27]: 2.92 mM; Kd ([4]; Estimated binding constant (Kd), residue 091T, Table S5, per-residue fit, NDM-1 091T): 5.76 mM; Kd [4, 28]: 6.63 mM; Kd ([4]; Estimated binding constant (Kd), residue 149A, Table S5, per-residue fit, NDM-1 149A): 1.71 mM; Kd [4, 29]: 3.52 mM; Kd [4, 10]: 3.4 mM; Kd [4, 11]: 0.85 mM; Kd [4, 30]: 12.1 mM; Kd [4, 23]: 3.48 mM; Kd [4, 26]: 2 ± 0.1 mM
O=C(Cc1cccs1)NC(C1CCCCN1)P(=O)(O)O (centres unmarked) [Compound 5i-2, (Piperidin-2-yl(2-(thiophen-2-yl)acetamido)methyl)phos-phonic acid hydrochloride] | 0.271 ± 0.034 | 1.1 ± 0.1 | 26.4 | 14.1 | 1.76 | 8.3 | 17.6 | 2.49 | 15.2 | 6.84 | 17.1 | 0.78 | 16.4 | 10.1 | 2.3 | 2.71 | 2.58 | 3.38 | 5.01 | 1.66 | IC50 [1]: 0.328 ± 0.116 mM; Kd [4, 27]: 4.9 mM; Kd [4, 28]: 2.03 mM; Kd [4, 29]: 1.18 mM; Kd ([4]; Estimated binding constant (Kd), residue 206G, Table S5, per-residue fit, NDM-1 206G): 6.81 mM; Kd [4, 30]: 5.57 mM; Kd ([4]; Estimated binding constant (Kd), residue 249S, Table S5, per-residue fit, NDM-1 249S): 8.45 mM; Kd ([4]; Estimated binding constant (Kd), residue 263A_266A, Table S5, per-residue fit, NDM-1 263A_266A): 0.69 mM; Kd [4, 26]: 1.4 ± 0.1 mM
